Measurements published in patent US6875760B2 (Novo Nordisk A/S, priority 1999, dated 2005).

target: T1, cloned human glucagon receptor (Homo sapiens, UniProt P47871); test: Glucagon Binding Assay (II); details: not given
T1 construct: expressed in transfected cells; plasma membrane preparation
T1 sequence (P47871 26-477): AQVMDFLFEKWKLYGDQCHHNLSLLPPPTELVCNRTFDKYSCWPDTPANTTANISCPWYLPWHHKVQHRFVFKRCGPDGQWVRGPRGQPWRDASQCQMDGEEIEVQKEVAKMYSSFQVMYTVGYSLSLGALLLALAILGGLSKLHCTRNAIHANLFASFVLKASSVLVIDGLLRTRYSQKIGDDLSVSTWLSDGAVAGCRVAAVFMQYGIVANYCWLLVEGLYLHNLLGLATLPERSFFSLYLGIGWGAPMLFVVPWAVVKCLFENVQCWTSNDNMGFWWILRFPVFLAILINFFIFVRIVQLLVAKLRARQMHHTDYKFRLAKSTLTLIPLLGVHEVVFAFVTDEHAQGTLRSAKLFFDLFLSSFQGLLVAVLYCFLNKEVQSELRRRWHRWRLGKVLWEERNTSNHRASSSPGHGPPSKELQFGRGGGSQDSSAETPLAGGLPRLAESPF

SMILES | IC50 [µM]
CC(C)(C)C1CCC(N(Cc2ccc(C(=O)NCCC(=O)O)cc2)C(=O)Nc2ccc(Cl)c(Cl)c2)CC1 (centres unmarked) [drawing 1169] | 0.226

same assay, conditions: plasma membranes of BHK cells expressing the receptor; read-out: Glu Bd Assay (II) IC50

SMILES | IC50 [µM]
CC1C(N(Cc2ccc(C(=O)NCCC(=O)O)cc2)C(=O)Nc2cc(Cl)cc(Cl)c2)CC2CC1C2(C)C (centres unmarked) [Example 114] | 0.575
Cc1ccc(NC(=O)N(Cc2ccc(S(=O)(=O)NCCC(=O)O)cc2)C2CCC(C(C)(C)C)CC2)cc1F (centres unmarked) [Example 107, 3-{4-[1-(4-tert-Butylcyclohexyl)-3-(3-fluoro-4-methylphenyl)ureidomethyl]benzenesulfonylamino)propionic acid] | 1.2
O=C(NCc1nn[nH]n1)c1ccc(CN(Cc2ccc(OC(F)(F)F)cc2)[C@H]2CC[C@@H](C3CCCCC3)CC2)cc1 [Example 573, 4-({(4-cis-Cyclohexylcyclohexyl)-[4-(trifluoromethoxy)benzyl]amino}methyl)-N-(2H-tetrazol-5-ylmethyl)benzamide] | 0.152
O=C(O)CCNC(=O)c1ccc(CN(C(=O)NCc2ccc(Cl)c(Cl)c2)c2ccc(C3CCCCC3)cc2)cc1 [Example 606, 3-{4-[1-(4-Cyclohexylphenyl)-3-(3,4-dichlorobenzyl)ureidomethyl]benzoylamino}propionic acid] | 0.098
C[C@H](NC(=O)N(Cc1ccc(C(=O)Nc2nn[nH]n2)cc1)c1ccc(C2CCCCC2)cc1)c1ccccc1 [Example 596, 4-[1-(4-Cyclohexylphenyl)-3-((1S)-1-phenylethyl)ureidomethyl]-N-(2H-tetrazol-5-yl)benzamide] | 0.112

Continued, values first:

IC50 [µM] | SMILES
0.22 | CCCCc1ccc(NC(=O)N(Cc2ccc(C(=O)NCCC(=O)O)cc2)C2Cc3ccccc3C2)cc1 [Example 112, 3-{4-[1-(2,3-Dihydro-1H-inden-2-yl)-3-(4-butylphenyl)ureidomethyl]benzoylamino)propionic acid]
0.254 | CCCCOC(=O)c1ccc(NC(=O)N(CCC(C)C)Cc2ccc(C(=O)NCCC(=O)O)cc2)cc1
0.999 | O=C(O)CCNC(=O)c1ccc(CN(C(=O)Nc2ccc(OC(F)(F)F)cc2)C2CCC3(CC2)SCCS3)cc1 [Example 178, 3-{4-[1-(1,4-Dithiaspiro[4.5]dec-8-yl)-3-(4-trifluoromethoxyphenyl)ureidomethyl]benzoylamino)propionic acid]
0.379 | C[C@@H](C1CCCCC1)N(Cc1ccc(C(=O)NCCC(=O)O)cc1)C(=O)Nc1ccc(OC(F)(F)F)cc1 [Example 139, 3-{4-[1-((1S)-1-Cyclohexylethyl)-3-(4-trifluoromethoxyphenyl)ureidomethyl]benzoylamino)propionic acid]
0.121 | CC(C)(C)C1CCC(N(Cc2ccc(C(=O)NCCC(=O)O)cc2)C(=O)Nc2ccc(Oc3ccccc3)cc2)CC1 (centres unmarked) [drawing 1168]
0.013 | CCCCc1ccc(N(Cc2ccc(C(=O)NCCC(=O)O)cc2)C(=O)Nc2ccc(OC(F)(F)F)cc2)cc1 [drawing 1186]
0.05 | CC(C)(C)C1CCC(N(Cc2ccc(C(=O)NCCC(=O)O)cc2)C(=O)Nc2cc(Cl)cc(Cl)c2)CC1 (centres unmarked) [Example 104, 3-{4-[1-(4-tert-Butylcyclohexyl)-3-(3,5-dichlorophenyl)ureidomethyl]benzoylamino)propionic acid]
0.874 | CC(C)(C)[C@H]1CC[C@H](N(Cc2ccc(C(=O)NCCC(=O)O)cc2)C(=O)c2ccc(OC(F)(F)F)cc2)CC1 [Example 586, 3-(4-{[(trans-4-tert-Butylcyclohexyl)-(4-trifluoromethoxybenzoyl)amino]methyl}benzoylamino)propionic acid]
0.02 | O=C(O)CCNC(=O)c1ccc(CN(C(=O)Nc2ccc(SC(F)(F)F)cc2)c2ccc(C3CCCCC3)cc2)cc1 [Example 233, 3-{4-[1-(4-Cyclohexylphenyl)-3-(4-trifluoromethylsulfanylphenyl)ureidomethyl]benzoylamino}propionic acid]
0.224 | CC(C)(C)[C@H]1CC[C@@H](N(Cc2ccc(C(=O)NCCC(=O)O)cc2)NC(=O)c2cccc(OC(F)(F)F)c2)CC1 [Example 590, 3-{4-[N-(cis-4-tert-Butylcyclohexyl)-N′-(3-trifluoromethoxybenzoyl)hydrazinomethyl]benzoylamino}propionic acid]
0.637 | O=C(O)CCNC(=O)c1ccc(CN(C(=O)Nc2cc(Cl)cc(Cl)c2)C2Cc3ccccc3C2)cc1 [Example 138, 3-{4-[1-Indan-2-yl-3-(3,5-dichlorophenyl)ureidomethyl]benzoylamino}propionic acid]
0.641 | CC1CC(N(Cc2ccc(C(=O)NCCC(=O)O)cc2)C(=O)Nc2cc(Cl)cc(Cl)c2)CC(C)(C)C1 (centres unmarked) [Example 176, 3-{4-[3-(3,5-Dichlorophenyl)-1-(3,3,5-trimethylcyclohexyl)ureidomethyl]benzoylamino)propionic acid]

same assay, conditions: read-out: displacement of the glucagon tracer when screened at 1 μM concentration in the glucagon binding assay II

SMILES | inhibition at 1 µM [%]
CC(C)(C)C1CCC(N(Cc2ccc(C(=O)NCCC(=O)O)cc2)C(=O)NC(=O)Oc2ccccc2)CC1 (centres unmarked) [Example 208, 3-{4-[1-(4-tert-Butylcyclohexyl)-3-(phenoxycarbonyl)ureidomethyl]benzoylamino}propionic acid] | > 50

same assay, conditions: screened at 1 μM; library compounds; read-out: displacement of the glucagon tracer when screened at 1 μM concentration in the glucagon binding assay II

SMILES | inhibition at 1 µM [%]
O=C(O)CCNC(=O)c1ccc(CN(C(=O)Nc2ccc(C(=O)O)cc2)c2ccc3c(c2)OCO3)cc1 [Example 184, 4-{3-(Benzo[1,3]dioxo-5-yl)-3-[4-(2-carboxyethylcarbamoyl)benzyl]ureido}benzoic acid] | > 50
O=C(O)CCNC(=O)c1ccc(CN(CCC(c2ccccc2)c2ccccc2)Cc2ccc(C(F)(F)F)cc2)cc1 [Example 141, 3-(4-{[(3,3-Diphenylpropyl)-(4-trifluoromethylbenzyl)amino]methyl}benzoylamino)propionic acid] | > 50
CC(C)(C)C1CCC(N(Cc2ccc(C(=O)Nc3ccc4c(c3)C(=O)NC4=O)cc2)C(=O)Nc2ccc(Cl)cc2)CC1 (centres unmarked) [Example 166, 4-[1-(4-tert-Butylcyclohexyl)-3-(4-chlorophenyl)ureidomethyl]-N-(1,3-dioxo-2,3-dihydro-1H-isoindol-5-yl)benzamide] | > 50
O=C(O)CCNC(=O)c1ccc(CN(Cc2ccccc2Cl)CC(c2ccccc2)c2ccccc2)cc1 [Example 143, 3-(4-{[(2,2-Diphenylethyl)-(2-chlorobenzyl)amino]methyl}benzoylamino)propionic acid] | > 50
Cc1cc(C)cc(NC(=O)N(Cc2ccc(C(=O)NCCC(=O)O)cc2)c2ccc(C3CCCCC3)cc2)c1 [Example 186, 3-{4-[1-(4-Cyclohexylphenyl)-3-(3,5-dimethylphenyl)ureidomethyl]benzoylamino}propionic acid] | > 50
CCCCOc1ccc(NC(=O)N(Cc2ccc(C(=O)NCCC(=O)O)s2)Cc2ccccc2OC(F)(F)F)cc1 [Example 125, 3-{5-[1-(2-Trifluoromethoxybenzyl)-3-(4-butoxyphenyl)ureidomethyl]thiophene-2-carbonylamino)propionic acid] | > 50
COc1ccc(CN(Cc2ccc(C(C)C)cc2)Cc2ccc(C(=O)NCCC(=O)O)s2)cc1OC [Example 150, 3-(5-{[(3,4-Dimethoxybenzyl)-(4-isopropylbenzyl)amino]methyl}thiophene-2-carbonylamino)propionic acid] | > 50
O=C(O)CCNC(=O)c1ccc(CN(Cc2ccccc2OC(F)(F)F)C(=O)Nc2ccc(SC(F)(F)F)cc2)s1 [Example 126, 3-{5-[1-(2-Trifluoromethoxybenzyl)-3-(4-trifluoromethylsulfanylphenyl)ureidomethyl]thiophene-2-carbonylamino)propionic acid] | > 50
O=C(O)CCNC(=O)c1ccc(CN(Cc2ccc(C(F)(F)F)cc2)C(=O)Nc2ccc3ccccc3c2)s1 [Example 128, 3-{5-[1-(4-Trifluoromethylbenzyl)-3-naphthalene-2-ylureidomethyl]thiophene-2-carbonylamino)propionic acid] | > 50
O=C(O)CCCOc1ccc(CN(C(=O)Nc2ccc(C(=O)O)cc2)c2ccc(C3CCCCC3)cc2)cc1 [Example 218, 4-[3-[4-(3-Carboxypropoxy)benzyl]-3-(4-cyclohexylphenyl)ureido]benzoic acid] | > 50

Results, then the molecule that gave them:

inhibition at 1 µM [%] | SMILES
> 50 | CC(C)(C)C1CCC(N(Cc2ccc(C(=O)NCCC(=O)O)cc2)C(=O)NC2CC2c2ccccc2)CC1 (centres unmarked) [Example 132, 3-{4-[1-(4-tert-Butylcyclohexyl)-3-(2-phenylcyclopropyl)ureidomethyl]benzoylamino)propionic acid]
> 50 | O=C(O)CCNC(=O)c1ccc(CN(C(=O)Nc2ccc(Cl)c(C(F)(F)F)c2)c2ccc3nc(S)sc3c2)cc1 [Example 183, 3-{4-[3-(4-Chloro-3-trifluoromethylphenyl)-1-(2-mercaptobenzothiazol-6-yl)ureidomethyl]benzoylamino}propionic acid]
> 50 | O=C(O)CCNC(=O)c1ccc(CN(Cc2ccccc2OC(F)(F)F)C(=O)Nc2ccc(SC(F)(F)F)cc2)cc1 [Example 117, 3-{4-[1-(2-Trifluoromethoxybenzyl)-3-(4-trifluoromethylsulfanylphenyl)ureidomethyl]benzoylamino)propionic acid]
> 50 | CN1C(=O)c2ccc(NC(=O)N(Cc3ccc(C(=O)NCCC(=O)O)cc3)C3CCC(C(C)(C)C)CC3)cc2C1=O (centres unmarked) [Example 209, 3-{4-[1-(4-tert-Butylcyclohexyl)-3-(2-methyl-1,3-dioxo-2,3-dihydro-1H-isoindol-5-yl)ureidomethyl]benzoylamino}propionic acid]
> 50 | O=C(O)CCNC(=O)c1ccc(CN(Cc2ccc(C(F)(F)F)cc2)C(=O)Nc2ccc(SC(F)(F)F)cc2)cc1 [Example 120, 3-{4-[1-(4-Trifluoromethylbenzyl)-3-(4-trifluoromethylsulfanylphenyl)ureidomethyl]benzoylamino)propionic acid]
> 50 | CC(C)(C)C1CCC(N(Cc2ccc(OCCCC(=O)O)cc2)C(=O)Nc2ccc(Cl)c(C(F)(F)F)c2)CC1 (centres unmarked) [Example 225, 4-{4-[1-(4-tert-Butylcyclohexyl)-3-(4-chloro-3-trifluoromethylphenyl)ureidomethyl]phenoxy}butyric acid]
